Measured values published in ChEMBL document CHEMBL1201862, “PubChem BioAssay data set” (2004).
Activity calls are given as the source filed them.

What was measured:
[1] = target: T1, High affinity choline transporter 1 (Homo sapiens, UniProt Q9GZV3); assay: human choline transporter potentiators, potency – cell-based, 10-point CRC, membrane potential dye, dose response (AID 602376); type: functional
T1 sequence (Q9GZV3 whole entry): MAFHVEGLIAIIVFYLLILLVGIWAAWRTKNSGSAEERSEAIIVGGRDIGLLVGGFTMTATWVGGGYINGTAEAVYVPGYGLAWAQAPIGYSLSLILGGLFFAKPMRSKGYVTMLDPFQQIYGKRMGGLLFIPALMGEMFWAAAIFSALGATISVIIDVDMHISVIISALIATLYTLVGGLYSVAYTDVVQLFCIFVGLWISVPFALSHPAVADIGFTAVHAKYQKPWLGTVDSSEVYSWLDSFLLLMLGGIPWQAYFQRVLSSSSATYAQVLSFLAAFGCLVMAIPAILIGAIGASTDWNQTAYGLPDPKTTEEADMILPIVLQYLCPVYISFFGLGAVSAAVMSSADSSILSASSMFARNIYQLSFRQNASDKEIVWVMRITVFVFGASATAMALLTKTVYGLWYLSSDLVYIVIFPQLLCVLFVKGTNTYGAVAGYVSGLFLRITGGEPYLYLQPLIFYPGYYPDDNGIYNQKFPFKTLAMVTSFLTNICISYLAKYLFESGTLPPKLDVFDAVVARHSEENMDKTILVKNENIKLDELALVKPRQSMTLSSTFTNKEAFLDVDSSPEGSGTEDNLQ

[2] = target: Melanin-concentrating hormone receptor 1 (Homo sapiens, UniProt Q99705); assay: Late-stage fluorescence-based counterscreen for antagonists of the G-protein coupled receptor 7 (GPR7): cell-based dose response assay to identify antagonists of the melanin-concentrating hormone receptor 1 (MCHR1) Set 5.; type: functional
Chain of Melanin-concentrating hormone receptor 1 (Q99705 whole entry): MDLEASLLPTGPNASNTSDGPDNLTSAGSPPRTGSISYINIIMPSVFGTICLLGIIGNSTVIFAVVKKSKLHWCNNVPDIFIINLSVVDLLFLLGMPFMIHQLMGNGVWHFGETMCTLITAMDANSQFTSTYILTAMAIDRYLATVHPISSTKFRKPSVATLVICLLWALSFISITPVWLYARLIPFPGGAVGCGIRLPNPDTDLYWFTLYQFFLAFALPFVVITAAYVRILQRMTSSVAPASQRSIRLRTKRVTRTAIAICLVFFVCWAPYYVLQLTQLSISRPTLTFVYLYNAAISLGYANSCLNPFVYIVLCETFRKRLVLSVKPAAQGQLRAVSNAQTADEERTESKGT

[3] = target: G-protein coupled receptor 55 (Homo sapiens, UniProt Q9Y2T6); assay: inhibition of LPI-stimulated GPR55 beta-arrestin translocation – imaging, U2OS, beta-arrestin-GFP, LPI agonist, primary screen (AID 2013); type: functional;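 also: antagonist potency measured as reduced agonist-driven arrestin aggregation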
Chain of G-protein coupled receptor 55 (Q9Y2T6 whole entry): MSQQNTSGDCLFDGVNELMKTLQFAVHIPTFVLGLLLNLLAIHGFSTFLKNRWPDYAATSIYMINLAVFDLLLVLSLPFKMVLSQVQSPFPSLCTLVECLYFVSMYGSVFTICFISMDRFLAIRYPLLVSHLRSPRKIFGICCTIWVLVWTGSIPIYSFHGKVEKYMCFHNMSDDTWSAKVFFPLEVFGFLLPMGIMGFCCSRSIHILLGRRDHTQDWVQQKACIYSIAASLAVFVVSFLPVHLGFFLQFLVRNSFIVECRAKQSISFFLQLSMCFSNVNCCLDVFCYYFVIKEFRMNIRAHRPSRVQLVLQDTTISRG

Insulin-degrading enzyme [4] = target: T2, Insulin-degrading enzyme (Homo sapiens, UniProt P14735); assay: recombinant IDE activation, cell-free – biochemical, fluorescence polarization, counter-screen for IDE activator project, dose response (AID 588681)
T2 sequence (P14735 whole entry): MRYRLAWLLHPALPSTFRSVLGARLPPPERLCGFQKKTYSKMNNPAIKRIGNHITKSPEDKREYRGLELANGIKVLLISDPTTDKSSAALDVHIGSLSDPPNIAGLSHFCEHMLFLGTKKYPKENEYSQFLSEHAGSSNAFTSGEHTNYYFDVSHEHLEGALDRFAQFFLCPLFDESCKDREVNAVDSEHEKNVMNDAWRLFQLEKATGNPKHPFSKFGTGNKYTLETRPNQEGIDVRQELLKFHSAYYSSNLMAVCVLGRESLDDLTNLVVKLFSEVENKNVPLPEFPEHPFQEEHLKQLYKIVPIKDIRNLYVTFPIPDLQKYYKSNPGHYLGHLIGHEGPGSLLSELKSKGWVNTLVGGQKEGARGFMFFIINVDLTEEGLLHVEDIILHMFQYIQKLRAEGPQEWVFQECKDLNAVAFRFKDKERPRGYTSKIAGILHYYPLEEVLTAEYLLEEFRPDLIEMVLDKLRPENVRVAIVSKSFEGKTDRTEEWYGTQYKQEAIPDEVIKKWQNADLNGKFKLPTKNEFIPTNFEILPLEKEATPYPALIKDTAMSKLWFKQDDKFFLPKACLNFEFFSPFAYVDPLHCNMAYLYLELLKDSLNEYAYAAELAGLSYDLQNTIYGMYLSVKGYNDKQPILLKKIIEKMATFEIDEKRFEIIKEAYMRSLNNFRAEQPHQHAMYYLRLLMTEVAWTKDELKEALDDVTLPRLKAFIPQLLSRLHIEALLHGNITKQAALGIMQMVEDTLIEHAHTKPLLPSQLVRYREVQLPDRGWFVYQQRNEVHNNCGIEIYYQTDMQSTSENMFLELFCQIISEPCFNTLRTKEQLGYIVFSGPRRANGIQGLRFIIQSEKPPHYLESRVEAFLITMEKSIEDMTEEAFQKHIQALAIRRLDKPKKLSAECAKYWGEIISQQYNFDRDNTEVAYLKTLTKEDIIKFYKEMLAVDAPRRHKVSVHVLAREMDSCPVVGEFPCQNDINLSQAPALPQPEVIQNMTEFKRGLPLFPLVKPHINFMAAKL

HEK293 [5] = assay: membrane integrity loss in HEK cells – cell-based, fluorescence, cytotoxicity control for IDE activator project, dose response (AID 588440); type: functional; conditions: Homo sapiens;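 also: cytotoxicity by LDH release measuring loss of membrane integrity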
[6] = DRD fibroblast viability loss – cell-based, non-viral oncogenic, luminescence, dose response (AID 1934); type: functional; conditions: Homo sapiens
[7] = target: T3, Ubiquitin-conjugating enzyme E2 N (Homo sapiens, UniProt P61088); type: functional;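 also: Dose-response confirmation in a TR-FRET assay detecting UBC13-driven polyubiquitin chain formation, inhibition measured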
T3 sequence (P61088 whole entry): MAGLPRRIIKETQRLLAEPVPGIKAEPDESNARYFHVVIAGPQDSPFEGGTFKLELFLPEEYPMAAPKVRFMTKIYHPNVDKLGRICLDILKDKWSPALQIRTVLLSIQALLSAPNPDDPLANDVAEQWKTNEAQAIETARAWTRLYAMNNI

[8] = alpha-synuclein stem-loop luciferase translation blockers – H4 neuroglioma cells, luminescence, confirmation (AID 1988); type: functional, cell-based
INS1 = assay: INS-1E survival protection against cytokine death – cell-based, luminescence, retest, dose response (AID 449756); type: functional; conditions: Rattus norvegicus;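 also: cell death triggered by IL-1 beta plus TNF-alpha plus IFN-gamma mixture; protective hits raise ATP signal compared with cytokine alone wells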
BJ [9] = assay: growth inhibition of engineered Ras-driven BJ cells – cell-based, alamar blue fluorescence, cherrypicked samples, dose response (AID 2631); type: functional; conditions: Homo sapiens;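 also: confirmatory dose-response assay in RAS-dependent BJ fibroblasts engineered with TERT, LT and ST, with cytotoxicity read by fluorescence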
[10] = luciferase reporter signal suppression in cells – H4 neuroglioma cells, luminescence, dose response (AID 1990); type: functional, cell-based
BJ [11] = assay: cells; type: functional, cell-based; conditions: Homo sapiens
BJ [12] = assay: BJ-TERT fibroblast viability loss – cell-based, RAS-independent, luminescence, dose response (AID 1933); type: functional; conditions: Homo sapiens
HEK293 [13] = assay: optical interference in Abeta FP readout, dose response, artefact control for IDE activator project, biochemical, fluorescence polarization (AID 588442); type: functional, cell-based; conditions: Homo sapiens
Insulin-degrading enzyme [14] = target: T2, Insulin-degrading enzyme; assay: cellular IDE activation of Abeta substrate cleavage – fluorescence polarization, HEK cells, dose response (AID 588439); type: functional, cell-based
[15] = Luminescence Cell-Based Dose Response HTS to Identify Inhibitors of 5'UTR Stem-Loop Driven Prion Protein mRNA Translation in H4 Neuroglioblastoma Cells. [Related pubchem assays: 1827 (Project Summary), 1813 (Primary HTS)]; type: functional
BJ [16] = assay: BJ-TERT-LT-ST fibroblast viability loss – cell-based, RAS-independent, luminescence, dose response (AID 1935); type: functional; conditions: Homo sapiens;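 also: BJ fibroblasts immortalized with TERT plus LT and ST oncogenes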
[17] = target: Protein disulfide-isomerase (Homo sapiens, UniProt P07237); assay: inhibition of PDI-driven insulin aggregation – biochemical, turbidity, absorbance, cherry-picked samples, dose response (AID 602350); type: functional
Chain of Protein disulfide-isomerase (P07237 whole entry): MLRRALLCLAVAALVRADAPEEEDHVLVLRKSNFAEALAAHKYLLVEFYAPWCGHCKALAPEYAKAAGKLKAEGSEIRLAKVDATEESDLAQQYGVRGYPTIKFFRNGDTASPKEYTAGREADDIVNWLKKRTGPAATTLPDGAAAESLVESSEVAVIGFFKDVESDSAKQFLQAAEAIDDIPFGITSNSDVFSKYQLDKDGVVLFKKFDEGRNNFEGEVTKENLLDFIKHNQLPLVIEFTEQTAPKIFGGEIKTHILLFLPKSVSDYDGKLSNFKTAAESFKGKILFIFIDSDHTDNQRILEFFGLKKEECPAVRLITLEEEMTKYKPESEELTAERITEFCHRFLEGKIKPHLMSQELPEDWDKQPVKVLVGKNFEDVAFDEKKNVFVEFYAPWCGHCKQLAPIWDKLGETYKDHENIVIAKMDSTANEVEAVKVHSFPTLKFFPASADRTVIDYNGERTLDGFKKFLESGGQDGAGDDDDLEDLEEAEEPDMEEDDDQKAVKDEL

CCCCn1c(N)c(N(CCC(C)C)C(=O)C2CCCN(C(=O)c3ccc(Cl)cc3)C2)c(=O)[nH]c1=O (stereo not drawn)
EC50 [1]: 21.3 µM (active)

COc1ccc(Oc2c(Cl)cnn(Cc3cccc4ccccc34)c2=O)c(F)c1
IC50 [2]: 6.24 µM (active)

COC(=O)C1=C(C)N(Cc2ccccc2)C(NCc2cccc(C(F)(F)F)c2)=N[C@H]1c1cccc(F)c1
IC50 [3]: 1.85 µM (active) | EC50 (Insulin-degrading enzyme [4]): > 54.7 µM (inactive) | IC50 (HEK293 [5]): 11.3 µM (inactive) | EC50 [6]: 9.59 µM (inconclusive) | IC50 [7]: > 20 µM (inactive) | EC50 [8]: > 120 µM (not active) | AC50 (INS1): 6.83 µM (active) | EC50 (BJ [9]): > 133 µM (inconclusive) | EC50 [10]: 8.28 µM (active) | EC50 (BJ [11]): > 150 µM (inconclusive) | EC50 (BJ [12]): 5.26 µM (inconclusive) | EC50 (HEK293 [13]): > 54.7 µM (inactive) | EC50 (Insulin-degrading enzyme [14]): 9.71 µM (active) | EC50 [15]: 11 µM (active) | EC50 (BJ [16]): 4.9 µM (active)

CCOc1cc(N2CCOCC2)c(OCC)cc1NC(=O)COC(=O)[C@H](Cc1c[nH]c2ccccc12)NC(C)=O
AC50 [17]: 19.5 µM (active)
